In EP0067666A1, “Salts of antimicrobial naphthyridine and quinoline compounds and their production” (priority 1981, dated 1982):
≈ marks a conversion by molar mass, not a printed value.

What was measured:
[1] = system: Staph. aureus UC-76; assay: Antibacterial activity, MIC; assay type: cell-based; conditions: based on content of compound A
[2] = system: E. coli Vogel; assay: Antibacterial activity, MIC; assay type: cell-based; conditions: based on content of compound A
[3] = system: Entero cloacae MA 2646; assay: Antibacterial activity, MIC; assay type: cell-based; conditions: based on content of compound A
[4] = system: Strep. pyogenes C-203; assay: Antibacterial activity, MIC; assay type: cell-based; conditions: based on content of compound A
[5] = system: Strep. pneumoniae SV-1; assay: Antibacterial activity, MIC; assay type: cell-based; conditions: based on content of compound A
[6] = system: Pseudo. aeruginosa UI-18; assay: Antibacterial activity, MIC; assay type: cell-based; conditions: based on content of compound A
[7] = system: Klebs. pneumoniae MGH-2; assay: Antibacterial activity, MIC; assay type: cell-based; conditions: based on content of compound A
[8] = system: Strep. faecalis MGH-2; assay: Antibacterial activity, MIC; assay type: cell-based; conditions: based on content of compound A
[9] = system: Proteus retgeri M 1771; assay: Antibacterial activity, MIC; assay type: cell-based; conditions: based on content of compound A
[10] = system: Staph. aureus H 228; assay: Antibacterial activity, MIC; assay type: cell-based; conditions: based on content of compound A
[11] = system: Escherichia coli Vogel; assay: Acute mouse protection test; assay type: in vivo; conditions: single dose given at time of challenge, compound A series
[12] = system: Klebsiella pneumoniae MGH-2; assay: Acute mouse protection test; assay type: in vivo; conditions: single dose given at time of challenge, compound A series

Compound | MIC µg/ml Staph. aureus UC-76 [1] [µg/mL] | MIC µg/ml E. coli Vogel [2] [µg/mL] | MIC µg/ml Entero cloacae MA 2646 [3] [µg/mL] | MIC µg/ml Strep. pyogenes C-203 [4] [µg/mL] | MIC µg/ml Strep. pneumoniae SV-1 [5] [µg/mL] | MIC µg/ml Pseudo. aeruginosa UI-18 [6] [µg/mL] | MIC µg/ml Klebs. pneumoniae MGH-2 [7] [µg/mL] | MIC µg/ml Strep. faecalis MGH-2 [8] [µg/mL] | MIC µg/ml Proteus retgeri M 1771 [9] [µg/mL] | MIC µg/ml Staph. aureus H 228 [10] [µg/mL] | Single po Dose PD50 (mg/kg) ± 95% Confidence Limits Escherichia coli Vogel ([11]; oral) [mg/kg] | Single sc Dose PD50 (mg/kg) ± 95% Confidence Limits Escherichia coli Vogel ([11]; subcutaneous) [mg/kg] | Single po Dose PD50 (mg/kg) ± 95% Confidence Limits Klebsiella pneumoniae MGH-2 ([12]; oral) [mg/kg] | Single sc Dose PD50 (mg/kg) ± 95% Confidence Limits Klebsiella pneumoniae MGH-2 ([12]; subcutaneous) [mg/kg]
CCn1cc(C(=O)O)c(=O)c2cc(F)c(N3CCNCC3)cc21 [A Aspartate] | <0.1 | <0.1 | 0.1 (≈ 0.313 µM) | 0.8 (≈ 2.51 µM) | 1.6 (≈ 5.01 µM) | <0.1 | 0.2 (≈ 0.626 µM) | 1.6 (≈ 5.01 µM) | <0.1 | 0.8 (≈ 2.51 µM) |  |  |  | 
CCn1cc(C(=O)O)c(=O)c2cc(F)c(N3CCNCC3)cc21 [A Galacturo-nate] | <0.1 | <0.1 | 0.1 (≈ 0.313 µM) | 0.8 (≈ 2.51 µM) | 1.6 (≈ 5.01 µM) | 0.1 (≈ 0.313 µM) | 0.1 (≈ 0.313 µM) | 1.6 (≈ 5.01 µM) | <0.1 | 0.8 (≈ 2.51 µM) |  |  |  | 
CCn1cc(C(=O)O)c(=O)c2cc(F)c(N3CCNCC3)cc21 [A Gluconate] | 0.2 | <0.1 | 0.2 | 0.8 | 1.6 | 0.2 | 0.2 | 0.8 | <0.1 | 1.6 | 3.9 ± 0.9 | 0.5 ± 0.1 | 13 ± 6 | 1.4 ± 0.3
CCn1cc(C(=O)O)c(=O)c2cc(F)c(N3CCNCC3)cc21 [A Glutamate] | <0.1 | <0.1 | <0.1 | 0.8 (≈ 2.51 µM) | 1.6 (≈ 5.01 µM) | 0.1 (≈ 0.313 µM) | 0.1 (≈ 0.313 µM) | 1.6 (≈ 5.01 µM) | 0.1 (≈ 0.313 µM) | 1.6 (≈ 5.01 µM) |  |  |  | 
